Consider 27 compounds from patent publication US20210261512A1, “NOVEL COMPOUNDS” (INFLAZOME LIMITED, priority 2018, published 2021).

The target in the test is NLRP3 (Homo sapiens, UniProt Q96P20). The test can be described thus: THP-1 cells pyroptosis assay. More on the design: Seed THP-1 cells (25,000 cells/well) containing 1.0 μg/ml LPS; host or cells: THP-1. As to conditions: LPS 1.0 μg/ml, nigericin 5 μM, resazurin readout, 10 μM top dose (Example 2: top dose of 30 μM). It is filed as cell-based. On the procedure:
THP-1 cells (ATCC #TIB-202) were grown in RPMI containing L-glutamine (Gibco #11835) supplemented with imM sodium pyruvate (Sigma #S8636) and penicillin (100 units/ml)/streptomycin (0.1 mg/ml) (Sigma #P4333) in 10% Fetal Bovine Serum (FBS) (Sigma #F0804). The cells were routinely passaged and grown to confluency (˜10^6 cells/ml). On the day of the experiment, THP-1 cells were harvested and resuspended into RPMI medium (without FBS). The cells were then counted and viability (>90%) checked by Trypan blue (Sigma #T8154). Appropriate dilutions were made to give a concentration of 625,000 cells/ml. To this diluted cell solution was added LPS (Sigma #L4524) to give a 1 μg/ml Final Assay Concentration (FAC). 40 μl of the final preparation was aliquoted into each well of a 96-well plate. The plate thus prepared was used for compound screening.
The following method step-by-step assay was followed for compound screening. • 1. Seed THP-1 cells (25,000 cells/well) containing 1.0 μg/ml LPS in 40 μl of RPMI medium (without FBS) in 96-well, black walled, clear bottom cell culture plates coated with poly-D-lysine (VWR #734-0317) • 2. Add 5 μl compound (8 points four-fold dilution or 8 points half-log dilution, with 10 μM top dose, unless stated otherwise) or vehicle (DMSO 0.1% FAC) to the appropriate wells • 3. Incubate for 3 hrs at 37° C. and 5% CO2 • 4. Add 5 μl nigericin (Sigma #N7143) (FAC 5 μM) to all wells • 5. Incubate for 1 hr at 37° C. and 5% CO2 • 6. At the end of the incubation period, spin plates at 300×g for 3 mins and remove supernatant • 7. Then add 50 μl of resazurin (Sigma #R^7017) (FAC 100 μM resazurin in RPMI medium without FBS) and incubate plates for a further 1-2 hrs at 37° C. and 5% CO2 • 8. Plates were read in an Envision reader at Ex 560 nm and Em 590 nm • 9. IC50 data is fitted to a non-linear regression equation (log inhibitor vs response-variable slope 4-parameters)
In general terms: Alamar Blue is a resazurin reagent that responds to reducing activity.

NLRP3, sequence (Q96P20 whole entry): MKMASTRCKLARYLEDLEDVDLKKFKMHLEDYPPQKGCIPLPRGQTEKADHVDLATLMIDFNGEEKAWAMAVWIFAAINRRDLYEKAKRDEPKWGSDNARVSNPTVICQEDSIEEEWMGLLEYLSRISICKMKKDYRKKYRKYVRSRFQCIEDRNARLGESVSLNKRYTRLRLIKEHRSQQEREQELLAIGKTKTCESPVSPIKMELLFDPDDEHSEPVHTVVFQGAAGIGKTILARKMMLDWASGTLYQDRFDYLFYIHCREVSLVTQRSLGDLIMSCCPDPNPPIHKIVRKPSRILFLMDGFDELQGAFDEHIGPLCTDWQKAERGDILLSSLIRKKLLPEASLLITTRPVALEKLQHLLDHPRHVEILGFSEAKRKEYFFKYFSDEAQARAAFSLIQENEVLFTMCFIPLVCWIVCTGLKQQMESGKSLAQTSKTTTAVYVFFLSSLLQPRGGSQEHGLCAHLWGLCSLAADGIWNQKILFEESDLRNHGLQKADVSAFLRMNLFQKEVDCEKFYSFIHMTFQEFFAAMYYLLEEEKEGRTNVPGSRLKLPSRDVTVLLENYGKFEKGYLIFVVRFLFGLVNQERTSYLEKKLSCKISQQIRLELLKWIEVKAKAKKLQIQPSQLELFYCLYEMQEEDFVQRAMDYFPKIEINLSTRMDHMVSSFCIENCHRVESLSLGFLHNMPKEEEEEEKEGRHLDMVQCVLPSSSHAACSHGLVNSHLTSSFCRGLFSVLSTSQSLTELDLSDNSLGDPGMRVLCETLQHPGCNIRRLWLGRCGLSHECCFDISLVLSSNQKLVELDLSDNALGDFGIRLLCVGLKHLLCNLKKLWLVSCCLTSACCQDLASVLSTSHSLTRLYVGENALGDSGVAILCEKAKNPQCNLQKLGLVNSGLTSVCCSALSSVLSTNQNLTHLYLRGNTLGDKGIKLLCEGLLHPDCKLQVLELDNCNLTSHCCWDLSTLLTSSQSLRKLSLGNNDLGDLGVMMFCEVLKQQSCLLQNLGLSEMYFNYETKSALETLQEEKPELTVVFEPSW

By IC50 is commonly meant the midpoint of a concentration-inhibition curve. Low readings indicate greater potency, high ones weaker potency. The compound `COc1cc(-c2ccc3c(c2Nc2nnc(S(=O)(=O)c4ccc(C(C)(C)O)cc4)[nH]2)CCC3)ccn1` [Example 324, 2-(4-((5-((5-(2-methoxypyridin-4-yl)-2,3-dihydro-1H-inden-4-yl)amino)-4H-1,2,4-triazol-3-yl)sulfonyl)phenyl)propan-2-ol] showed an IC50 of no more than 0.5 µM.

In turn, `O=S(=O)(NCCN1CCOCC1)c1nnc(Nc2c3c(cc4c2CCC4)CCC3)[nH]1` [Example 129, 5-((1,2,3,5,6,7-hexahydro-s-indacen-4-yl)amino)-N-(2-morpholinoethyl)-4H-1,2,4-triazole-3-sulfonamide] had an IC50 of no more than 5 µM.

`O=S(=O)(c1nnc(Nc2c3c(cc4c2CCC4)CCC3)[nH]1)N1CC2(CCN(CC(F)(F)F)C2)C1` [Example 263, N-(1,2,3,5,6,7-hexahydro-s-indacen-4-yl)-5-((6-(2,2,2-trifluoroethyl)-2,6-diazaspiro[3.4]octan-2-yl)sulfonyl)-4H-1,2,4-triazol-3-amine] had an IC50 of no more than 5 µM.

As for `O=S1(=O)CCN(S(=O)(=O)c2nnc(Nc3c4c(cc5c3CCC5)CCC4)[nH]2)CC1` [Example 298, 4-((5-((1,2,3,5,6,7-hexahydro-s-indacen-4-yl)amino)-4H-1,2,4-triazol-3-yl)sulfonyl)thiomorpholine 1,1-dioxide], the IC50 was no more than 10 µM.

Turning to `Cc1cccc(S(=O)(=O)c2nnc(Nc3c4c(cc5c3CCC5)CCC4)[nH]2)c1` [Example 174, N-(1,2,3,5,6,7-hexahydro-s-indacen-4-yl)-5-(m-tolylsulfonyl)-4H-1,2,4-triazol-3-amine], the IC50 is no more than 5 µM.

Regarding `CC(C)c1cc(F)cc(-c2cccnc2)c1Nc1nnc(S(=O)(=O)c2ccn(C(C)C)n2)[nH]1` [Example 39, N-(4-fluoro-2-isopropyl-6-(pyridin-3-yl)phenyl)-5-((1-isopropyl-1H-pyrazol-3-yl)sulfonyl)-4H-1,2,4-triazol-3-amine], the IC50 is no more than 10 µM.

Take `O=S(=O)(NCCc1ccccc1)c1nnc(Nc2c3c(cc4c2CCC4)CCC3)[nH]1` [Example 134, 5-((1,2,3,5,6,7-hexahydro-s-indacen-4-yl)amino)-N-phenethyl-4H-1,2,4-triazole-3-sulfonamide]: the IC50 is no more than 5 µM.

Turning to `CN1CCC(CN(C)CCCS(=O)(=O)c2nnc(Nc3c4c(cc5c3CCC5)CCC4)[nH]2)CC1` [Example 53, N-(1,2,3,5,6,7-hexahydro-s-indacen-4-yl)-5-((3-(methyl((1-methylpiperidin-4-yl)methyl)amino)propyl)sulfonyl)-4H-1,2,4-triazol-3-amine], the IC50 is no more than 5 µM.

The compound `CN(C)C1CCN(S(=O)(=O)c2nnc(Nc3c(-c4ccnn4C)ccc4c3CCC4)[nH]2)CC1` [Example 205, N,N-dimethyl-1-((5-((5-(1-methyl-1H-pyrazol-5-yl)-2,3-dihydro-1H-inden-4-yl)amino)-4H-1,2,4-triazol-3-yl)sulfonyl)piperidin-4-amine] had an IC50 of no more than 10 µM.

For the compound `CC(C)(O)Cn1cc(S(=O)(=O)c2nnc(Nc3c4c(cc5c3CCC5)CCC4)[nH]2)cn1` [Example 336, 1-(4-((5-((1,2,3,5,6,7-hexahydro-s-indacen-4-yl)amino)-4H-1,2,4-triazol-3-yl)sulfonyl)-1H-pyrazol-1-yl)-2-methylpropan-2-ol], the IC50 is no more than 5 µM.

For `CCN1CCCC12CCN(S(=O)(=O)c1nnc(Nc3c4c(cc5c3CCC5)CCC4)[nH]1)CC2` [Example 256, 5-((1-ethyl-1,8-diazaspiro[4.5]decan-8-yl)sulfonyl)-N-(1,2,3,5,6,7-hexahydro-s-indacen-4-yl)-4H-1,2,4-triazol-3-amine], the half-inhibitory concentration (IC50) was no more than 0.5 µM.

`CS(=O)(=O)c1nnc(Nc2c3c(c(C#N)c4c2CCC4)CCC3)[nH]1` [Example 322, 8-((5-(methylsulfonyl)-4H-1,2,4-triazol-3-yl)amino)-1,2,3,5,6,7-hexahydro-s-indacene-4-carbonitrile]: the IC50 is no more than 5 µM.

In the case of `O=S(=O)(c1nnc(Nc2c3c(cc4c2CCC4)CCC3)[nH]1)N1CCC2(CCCN2CC(F)(F)F)CC1` [Example 267, N-(1,2,3,5,6,7-hexahydro-s-indacen-4-yl)-5-((1-(2,2,2-trifluoroethyl)-1,8-diazaspiro[4.5]decan-8-yl)sulfonyl)-4H-1,2,4-triazol-3-amine], the IC50 was no more than 10 µM.

`O=S(=O)(NC1CCCNC1)c1nnc(Nc2c3c(cc4c2CCC4)CCC3)[nH]1` (stereo not drawn) [Example 112, 5-((1,2,3,5,6,7-hexahydro-s-indacen-4-yl)amino)-N-(piperidin-3-yl)-4H-1,2,4-triazole-3-sulfonamide] displayed an IC50 of no more than 5 µM.

`CNC(=O)CS(=O)(=O)c1nnc(Nc2c3c(cc4c2CCC4)CCC3)[nH]1` [Example 68, 2-((5-((1,2,3,5,6,7-hexahydro-s-indacen-4-yl)amino)-4H-1,2,4-triazol-3-yl)sulfonyl)-N-methylacetamide] displayed an IC50 of no more than 5 µM.

For `CC(C)n1cc(S(=O)(=O)c2nnc(Nc3c4c(cc5c3CCC5)CCC4)[nH]2)cn1` [Example 338, N-(1,2,3,5,6,7-hexahydro-s-indacen-4-yl)-5-((1-isopropyl-1H-pyrazol-4-yl)sulfonyl)-4H-1,2,4-triazol-3-amine], the IC50 was no more than 5 µM.

`CC(C)(O)c1cccc(S(=O)(=O)c2nnc(Nc3c4c(cc5c3CCC5)CCC4)[nH]2)c1` [Example 172, 2-(3-((5-((1,2,3,5,6,7-hexahydro-s-indacen-4-yl)amino)-4H-1,2,4-triazol-3-yl)sulfonyl)phenyl)propan-2-ol]: the IC50 was no more than 1 µM.

On to `O=S(=O)(c1nnc(Nc2c3c(cc4c2CCC4)CCC3)[nH]1)C1CCOCC1` [Example 157, N-(1,2,3,5,6,7-hexahydro-s-indacen-4-yl)-5-((tetrahydro-2H-pyran-4-yl)sulfonyl)-4H-1,2,4-triazol-3-amine], for which the IC50 is no more than 10 µM.

As for `CC(C)(O)CCNS(=O)(=O)c1nnc(Nc2c3c(cc4c2CCC4)CCC3)[nH]1` [Example 116, 5-((1,2,3,5,6,7-hexahydro-s-indacen-4-yl)amino)-N-(3-hydroxy-3-methylbutyl)-4H-1,2,4-triazole-3-sulfonamide], the IC50 was no more than 5 µM.

For `O=S(=O)(c1nnc(Nc2c3c(cc4c2CCC4)CCC3)[nH]1)C1CCCC1` [Example 64, 3-(Cyclopentylsulfonyl)-N-(1,2,3,5,6,7-hexahydro-s-indacen-4-yl)-1H-1,2,4-triazol-5-amine], the IC50 was no more than 5 µM.

In turn, `N#Cc1c2c(c(Nc3nnc(S(=O)(=O)c4ccccc4)[nH]3)c3c1CCC3)CCC2` [Example 323, 8-((5-(phenylsulfonyl)-4H-1,2,4-triazol-3-yl)amino)-1,2,3,5,6,7-hexahydro-5-indacene-4-carbonitrile] returned an IC50 of no more than 5 µM.

Regarding `O=S(=O)(NCc1ccccc1)c1nnc(Nc2c3c(cc4c2CCC4)CCC3)[nH]1` [Example 86, N-benzyl-5-((1,2,3,5,6,7-hexahydro-s-indacen-4-yl)amino)-4H-1,2,4-triazole-3-sulfonamide], the concentration for half-maximal inhibition (IC50) was no more than 5 µM.

With `CCN(CC)CCS(=O)(=O)Cc1nnc(Nc2c3c(cc4c2CCC4)CCC3)[nH]1` [Example 373, 5-(((2-(diethylamino)ethyl)sulfonyl)methyl)-N-(1,2,3,5,6,7-hexahydro-s-indacen-4-yl)-4H-1,2,4-triazol-3-amine], the IC50 was no more than 10 µM.

The compound `CS(=O)(=O)c1nnc(Nc2c(-c3ccnc(OCCO)c3)ccc3c2CCC3)[nH]1` [Example 238, 2-((4-(4-((5-(methylsulfonyl)-4H-1,2,4-triazol-3-yl)amino)-2,3-dihydro-1H-inden-5-yl)pyridin-2-yl)oxy)ethan-1-ol] had an IC50 of no more than 10 µM.

As for `COc1cc(-c2c(C)cccc2Nc2nnc(S(=O)(=O)N3CCC(N(C)C)CC3)[nH]2)ccn1` [Example 208, 1-((5-((2-(2-methoxypyridin-4-yl)-3-methylphenyl)amino)-4H-1,2,4-triazol-3-yl)sulfonyl)-N,N-dimethylpiperidin-4-amine], the concentration for half-maximal inhibition (IC50) is no more than 10 µM.

`CN1CCC(Oc2cc(-c3ccc4c(c3Nc3nnc(S(=O)(=O)N5CCC(N(C)C)CC5)[nH]3)CCC4)ccn2)CC1` [Example 321, N,N-dimethyl-1-((5-((5-(2-((1-methylpiperidin-4-yl)oxy)pyridin-4-yl)-2,3-dihydro-1H-inden-4-yl)amino)-4H-1,2,4-triazol-3-yl)sulfonyl)piperidin-4-amine] had an IC50 of no more than 5 µM.

`CN1CCC(CN(C)S(=O)(=O)c2nnc(Nc3c4c(cc5c3CCC5)CCC4)[nH]2)C1` (stereo not drawn) [Example 92, 5-((1,2,3,5,6,7-hexahydro-s-indacen-4-yl)amino)-N-methyl-N-((1-methylpyrrolidin-3-yl)methyl)-4H-1,2,4-triazole-3-sulfonamide]: the half-inhibitory concentration (IC50) was no more than 10 µM.
